{"source": "patent US6617334B2", "about": "“Antidepressant azaheterocyclylmethyl derivatives of 7,8-dihydro-1,6,9-trioxa-3-aza-cyclopenta[a]naphthalene” (Wyeth, priority 2001, dated 2003)", "key": {"[1]": {"target": "T1, human 5-HT1A receptors (Homo sapiens, UniProt P08908)", "T1 construct": "expressed in transfected cells; host or cells: CHO cells, stably transfected", "T1 sequence (P08908 1-422)": "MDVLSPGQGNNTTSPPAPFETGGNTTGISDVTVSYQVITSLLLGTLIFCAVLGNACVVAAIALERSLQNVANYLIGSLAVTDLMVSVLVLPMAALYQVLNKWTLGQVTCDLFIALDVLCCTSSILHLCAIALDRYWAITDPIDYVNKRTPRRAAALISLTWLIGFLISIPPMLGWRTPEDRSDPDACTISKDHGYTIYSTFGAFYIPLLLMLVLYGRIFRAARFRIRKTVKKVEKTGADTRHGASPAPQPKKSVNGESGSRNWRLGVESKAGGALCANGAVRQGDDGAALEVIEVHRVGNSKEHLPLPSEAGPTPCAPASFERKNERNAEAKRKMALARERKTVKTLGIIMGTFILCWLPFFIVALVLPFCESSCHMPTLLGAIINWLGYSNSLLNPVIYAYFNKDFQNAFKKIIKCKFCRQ", "experiment": "[3H] 8-OHDPAT displacement from the 5-HT1A receptor in transfected CHO cells", "type": "binding", "source_text": "High affinity for the serotonin 5-HT1A receptor was established by testing the claimed compound's ability to displace [^3H] 8-OHDPAT (dipropylaminotetralin) from the 5-HT1A serotonin receptor following a modification of the procedure of Hall et al., J. Neurochem. 44, 1685 (1985) which utilizes CHO cells stably transfected with human 5-HT1A receptors."}, "[2]": {"target": "T2, serotonin transporter (Rattus norvegicus, UniProt P31652)", "T2 construct": "displace ^3H-paroxetine from male rat frontal cortical membranes; from tissue; host or cells: male rat frontal cortex membranes", "T2 sequence (P31652 whole entry)": "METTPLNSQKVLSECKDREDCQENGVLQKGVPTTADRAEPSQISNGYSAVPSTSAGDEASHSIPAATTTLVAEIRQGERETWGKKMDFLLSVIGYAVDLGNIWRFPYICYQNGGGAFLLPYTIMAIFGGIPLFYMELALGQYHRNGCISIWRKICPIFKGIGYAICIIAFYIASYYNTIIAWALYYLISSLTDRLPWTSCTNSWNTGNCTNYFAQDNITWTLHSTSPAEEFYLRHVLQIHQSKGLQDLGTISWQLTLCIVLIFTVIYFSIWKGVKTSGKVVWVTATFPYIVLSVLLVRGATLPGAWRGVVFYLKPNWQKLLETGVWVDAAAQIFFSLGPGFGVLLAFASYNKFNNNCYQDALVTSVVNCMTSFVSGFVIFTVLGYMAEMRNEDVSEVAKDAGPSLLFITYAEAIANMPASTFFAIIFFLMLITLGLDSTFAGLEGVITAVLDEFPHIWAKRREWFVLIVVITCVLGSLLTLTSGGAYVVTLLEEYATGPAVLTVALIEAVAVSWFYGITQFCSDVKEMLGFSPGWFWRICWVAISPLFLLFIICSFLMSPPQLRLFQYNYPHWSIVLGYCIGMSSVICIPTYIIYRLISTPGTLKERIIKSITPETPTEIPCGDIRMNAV", "experiment": "3H-paroxetine displacement, affinity for the serotonin transporter", "type": "binding"}, "[3]": {"target": "T3, cloned human 5-HT1A receptors (Homo sapiens, UniProt P08908)", "T3 construct": "expressed in transfected cells", "T3 sequence (P08908 1-422)": "T1 sequence (P08908 1-422)", "experiment": "35S-GTPγS binding assay, antagonist activity at 5-HT1A receptors", "type": "biochemical", "settings": "reversal of the effects of the standard agonist 8-OHDPAT; for IC50: read-out: 5-HT1A Function IC50", "description": "Antagonist activity at 5-HT1A receptors was established by using a ^35S-GTPγS binding assay similar to that used by Lazareno and Birdsall (Br. J. Pharmacol. 109: 1120, 1993), in which the test compound's ability to affect the binding of ^35S-GTPγS to membranes containing cloned human 5-HT1A receptors was determined. Agonists produce an increase in binding whereas antagonists produce no increase but rather reverse the effects of the standard agonist 8-OHDPAT. The test compound's maximum inhibitory effect is represented as the Imax, while its potency is defined by the IC50."}}, "note": "Structures can show the parent of a compound that is named as a salt.", "data": [{"smiles": "Cc1nc2ccc3c(c2o1)OC(CN1CC=C(c2c[nH]c4c(F)cccc24)CC1)CO3", "note": "(stereo not shown)", "values": [{"measurement": "melting point", "result": "208 to 210", "unit": "°C"}]}, {"smiles": "Cc1nc2ccc3c(c2o1)OC(CN1CC=C(c2c[nH]c4ccc(C#N)cc24)CC1)CO3", "note": "(stereo not shown) [Example 4, 3-[1-(2-Methyl-7,8-dihydro-1,6,9-trioxa-3-aza-cyclopenta[a]naphthalen-8-ylmethyl)-1,2,3,6-tetrahydro-pyridin-4-yl]-1H-indole-5-carbonitrile]", "values": [{"measurement": "Ki", "setting": "[1]", "result": 9.56, "unit": "nM"}, {"measurement": "Ki", "setting": "[2]", "result": 1.68, "unit": "nM"}, {"measurement": "5-HT1A Function Imax (maximum inhibitory effect)", "setting": "[3]", "result": 100}, {"measurement": "IC50", "setting": "[3]", "result": 115, "unit": "nM"}]}, {"smiles": "Cc1nc2ccc3c(c2o1)OC(CN1CC=C(c2c[nH]c4ccccc24)CC1)CO3", "note": "(stereo not shown) [Example 3, 8-[4-(1H-Indol-3-yl)-3,6-dihydro-2H-pyridin-1-ylmethyl]-2-methyl-7,8-dihydro-1,6,9-trioxa-3-aza-cyclopenta[a]naphthalene]", "values": [{"measurement": "Ki", "setting": "[1]", "result": 7.56, "unit": "nM"}, {"measurement": "melting point", "result": 196, "unit": "°C"}, {"measurement": "Ki", "setting": "[2]", "result": 3.83, "unit": "nM"}, {"measurement": "5-HT1A Function Imax (maximum inhibitory effect)", "setting": "[3]", "result": 100}, {"measurement": "IC50", "setting": "[3]", "result": 282, "unit": "nM"}]}, {"smiles": "Cc1nc2ccc3c(c2o1)OC(CN1CC=C(c2c[nH]c4ccc(F)cc24)CC1)CO3", "note": "(stereo not shown) [Example 2, 8-[4-(5-Fluoro-1H-indol-3-yl)-3,6-dihydro-2H-pyridin-1-ylmethyl]-2-methyl-7,8-dihydro-1,6,9-trioxa-3-aza-cyclopenta[a]naphthalene]", "values": [{"measurement": "Ki", "setting": "[1]", "result": 5.43, "unit": "nM"}, {"measurement": "melting point", "result": 95, "unit": "°C"}, {"measurement": "Ki", "setting": "[2]", "result": 2.25, "unit": "nM"}, {"measurement": "5-HT1A Function Imax (maximum inhibitory effect)", "setting": "[3]", "result": 100}, {"measurement": "IC50", "setting": "[3]", "result": 180, "unit": "nM"}]}, {"smiles": "C1=C(c2c[nH]c3ccccc23)CCN(CC2COc3ccc4ncoc4c3O2)C1", "note": "(stereo not shown) [Example 1, 8-[4-(1H-Indol-3-yl)-3,6-dihydro-2H-pyridin-1-ylmethyl]-7,8-dihydro-1,6,9-trioxa-3-aza-cyclopenta[a]naphthalene]", "values": [{"measurement": "Ki", "setting": "[1]", "result": 10.3, "unit": "nM"}, {"measurement": "melting point", "result": "223 to 224", "unit": "°C"}, {"measurement": "Ki", "setting": "[2]", "result": 4, "unit": "nM"}, {"measurement": "5-HT1A Function Imax (maximum inhibitory effect)", "setting": "[3]", "result": 45}, {"measurement": "IC50", "setting": "[3]", "result": 334, "unit": "nM"}]}, {"smiles": "Cc1nc2ccc3c(c2o1)OC(CN1CC=C(c2c[nH]c4cc(F)ccc24)CC1)CO3", "note": "(stereo not shown)", "values": [{"measurement": "melting point", "result": "188 to 190", "unit": "°C"}]}, {"smiles": "Cc1nc2ccc3c(c2o1)OC(CN1CC=C(c2c[nH]c4ccc(C#N)cc24)CC1)CO3", "note": "(stereo not shown) (as salt: fumarate) (hydrate or solvate) [Example 4, 3-[1-(2-Methyl-7,8-dihydro-1,6,9-trioxa-3-aza-cyclopenta[a]naphthalen-8-ylmethyl)-1,2,3,6-tetrahydro-pyridin-4-yl]-1H-indole-5-carbonitrile]", "values": [{"measurement": "melting point", "result": 119, "unit": "°C"}]}]}
